In ChEMBL document CHEMBL5113478, “7-Azaindole, 2,7-diazaindole, and 1H-pyrazole as core structures for novel anticancer agents with potential chemosensitizing properties” (Eur J Med Chem, 2022):

Key:
Assay type in all cases: functional
[1] = system: MOLT-4; assay: Antiproliferative activity against human MOLT-4 cells assessed as […] cell proliferation at 10 uM incubated for 48 hrs by WST-1 assay relative to control
[2] = system: MOLT-4; assay: Antiproliferative activity against human MOLT-4 cells assessed as […] cell proliferation at 10 uM incubated for 48 hrs in presence of 2 uM of CDDP by WST-1 assay relative to control
[3] = system: Jurkat; assay: Antiproliferative activity against human Jurkat cells assessed as […] cell proliferation at 10 uM incubated for 48 hrs by WST-1 assay relative to control
[4] = system: Jurkat; assay: Antiproliferative activity against human Jurkat cells assessed as […] cell proliferation at 10 uM incubated for 48 hrs in presence of 2 uM of CDDP by WST-1 assay relative to control
[5] = system: A2780; assay: Antiproliferative activity against human A2780 cells assessed as […] cell proliferation at 10 uM incubated for 48 hrs by WST-1 assay relative to control
[6] = system: A2780; assay: Antiproliferative activity against human A2780 cells assessed as […] cell proliferation at 10 uM incubated for 48 hrs in presence of 2 uM of CDDP by WST-1 assay relative to control
[7] = system: MCF7; assay: Antiproliferative activity against human MCF7 cells assessed as […] cell proliferation at 10 uM incubated for 48 hrs by WST-1 assay relative to control
[8] = system: MCF7; assay: Antiproliferative activity against human MCF7 cells assessed as […] cell proliferation at 10 uM incubated for 48 hrs in presence of 10 uM of CDDP by WST-1 assay relative to control
[9] = system: A549; assay: Antiproliferative activity against human A549 cells assessed as […] cell proliferation at 10 uM incubated for 48 hrs by WST-1 assay relative to control
[10] = system: A549; assay: Antiproliferative activity against human A549 cells assessed as […] cell proliferation at 10 uM incubated for 48 hrs in presence of 15 uM of CDDP by WST-1 assay relative to control
[11] = system: SAOS-2; assay: Antiproliferative activity against human SAOS-2 cells assessed as […] cell proliferation at 10 uM incubated for 48 hrs by WST-1 assay relative to control
[12] = system: SAOS-2; assay: Antiproliferative activity against human SAOS-2 cells assessed as […] cell proliferation at 10 uM incubated for 48 hrs in presence of 15 uM of CDDP by WST-1 assay relative to control
[13] = system: PANC-1; assay: Antiproliferative activity against human PANC-1 cells assessed as […] cell proliferation at 10 uM incubated for 48 hrs by WST-1 assay relative to control
[14] = system: PANC-1; assay: Antiproliferative activity against human PANC-1 cells assessed as […] cell proliferation at 10 uM incubated for 48 hrs in presence of 15 uM of CDDP by WST-1 assay relative to control
[15] = system: HT-29; assay: Antiproliferative activity against human HT-29 cells assessed as […] cell proliferation at 10 uM incubated for 48 hrs by WST-1 assay relative to control
[16] = system: HT-29; assay: Antiproliferative activity against human HT-29 cells assessed as […] cell proliferation at 10 uM incubated for 48 hrs in presence of 15 uM of CDDP by WST-1 assay relative to control
[17] = system: HeLa; assay: Antiproliferative activity against human HeLa cells assessed as […] cell proliferation at 10 uM incubated for 48 hrs by WST-1 assay relative to control
[18] = system: HeLa; assay: Antiproliferative activity against human HeLa cells assessed as […] cell proliferation at 10 uM incubated for 48 hrs in presence of 15 uM of CDDP by WST-1 assay relative to control

Row | Structure (SMILES) | Activity [1] | Activity [2] | Activity [3] | Activity [4] | Activity [5] | Activity [6] | Activity [7] | Activity [8] | Activity [9] | Activity [10] | Activity [11] | Activity [12] | Activity [13] | Activity [14] | Cell viability relative to control [15] | Activity [16] | Activity [17] | Activity [18]
1 | CC(C)S(=O)(=O)c1ccc(-c2cnc3[nH]cc(C(=O)Nc4ccc(N(C)C)cc4)c3c2)cc1 | 96% | 59% | 96% | 59% | 96% | 59% | 96% | 59% | 96% | 59% | 96% | 59% | 96% | 59% | 96% | 59% | 96% | 59%
2 | CC(C)S(=O)(=O)c1ccc(-c2cnc3[nH]c(C(=O)N4CCC(c5ccccc5)CC4)cc3c2)cc1 | 92% | 64% | 92% | 64% | 92% | 64% | 92% | 64% | 92% | 64% | 92% | 64% | 92% | 64% | 92% | 64% | 92% | 64%
3 | CC(C)S(=O)(=O)c1ccc(-c2cc(-c3nnc(-c4ccccc4)o3)n[nH]2)cc1 | 98% | 64% | 98% | 64% | 98% | 64% | 98% | 64% | 98% | 64% | 98% | 64% | 98% | 64% | 98% | 64% | 98% | 64%
4 | CC(C)S(=O)(=O)c1ccc(-c2cnc3[nH]c(C(=O)Nc4ccc(N(C)C)cc4)cc3c2)cc1 | 108% | 68% | 108% | 68% | 108% | 68% | 108% | 68% | 108% | 68% | 108% | 68% | 108% | 68% | 108% | 68% | 108% | 68%
5 | CCN1CCN(C2CCN(C(=O)c3cc4cc(-c5ccc(S(C)(=O)=O)cc5)cnc4[nH]3)CC2)CC1 | 96% | 67% | 96% | 67% | 96% | 67% | 96% | 67% | 96% | 67% | 96% | 67% | 96% | 67% | 96% | 67% | 96% | 67%
6 | CCN1CCN(Cc2c[nH]c3ncc(-c4ccc(S(=O)(=O)C(C)C)cc4)cc23)CC1 | 97% | 65% | 97% | 65% | 97% | 65% | 97% | 65% | 97% | 65% | 97% | 65% | 97% | 65% | 97% | 65% | 97% | 65%
7 | CS(=O)(=O)c1ccc(-c2cnc(N)c(C(=O)Nc3ccccc3)n2)cc1 | 66% | 16% | 66% | 16% | 66% | 16% | 66% | 16% | 66% | 16% | 66% | 16% | 66% | 16% | 66% | 16% | 66% | 16%
8 | CCN(CC)c1ccc(CNC(=O)c2cc(-c3ccc(S(=O)(=O)C(C)C)cc3)[nH]n2)cc1 | 78% | 62% | 78% | 62% | 78% | 62% | 78% | 62% | 78% | 62% | 78% | 62% | 78% | 62% | 78% | 62% | 78% | 62%
9 | CCN1CCN(C(=O)c2c[nH]c3ncc(-c4ccc(S(=O)(=O)C(C)C)cc4)cc23)CC1 | 100% | 66% | 100% | 66% | 100% | 66% | 100% | 66% | 100% | 66% | 100% | 66% | 100% | 66% | 100% | 66% | 100% | 66%
10 | CS(=O)(=O)c1ccc(-c2cnc3[nH]cc(C(=O)NCc4ccccc4)c3c2)cc1 | 89% | 64% | 89% | 64% | 89% | 64% | 89% | 64% | 89% | 64% | 89% | 64% | 89% | 64% | 89% | 64% | 89% | 64%
11 | CC(C)S(=O)(=O)c1ccc(-c2cnc3[nH]c(C(=O)Nc4ccccc4)cc3c2)cc1 | 103% | 65% | 103% | 65% | 103% | 65% | 103% | 65% | 103% | 65% | 103% | 65% | 103% | 65% | 103% | 65% | 103% | 65%
